# Source: patent EP2269591B1, “IMPROVED PHARMACEUTICAL FORMULATIONS” (AbbVie Inc., priority 2000, dated 2001)
# Read-outs that look alike come from different tables or passages of the source.
# Test: oral bioavailability in dogs
# Assay type: in vivo
# Details: unformulated solid in a capsule dosage form, 5 mg/kg oral dose in dogs
# Description: Dogs (beagle dogs, mixed sexes, weighing 7-14 kg) were fasted overnight prior to dosing, but were permitted water ad libitum. Each dog received a 100 µg/kg subcutaneous dose of histamine approximately 30 minutes prior to dosing. Each dog received a single dosage form corresponding to a 5 mg/kg dose of the drug. The dose was followed by approximately 10 milliliters of water. Blood samples were obtained from each animal prior to dosing and 0.25, 0.5, 1.0, 1.5, 2, 3, 4, 6, 8, 10, and 12 hours after drug administration. The plasma was separated from the red cells by centrifugation and frozen (-30 °C) until analysis. Concentrations of parent drug were determined by reverse phase HPLC with low wavelength UV detection following liquid-liquid extraction of the plasma samples. The parent drug area under the curve was calculated by the trapezoidal method over the time course of the study. The absolute bioavailability of each test composition was calculated by comparing the area under the curve after oral dosing to that obtained from a single intravenous dose. Each capsule or capsule composition was evaluated in a group containing at least six dogs; the values reported are averages for each group of dogs.
Compound,"bioavailability (dog, in vivo, read-out: bioavailability) [%]",bioavailability
CC(C)c1nc(CN(C)C(=O)NC(C(=O)NC(Cc2ccccc2)CC(O)C(Cc2ccccc2)NC(=O)OCc2cncs2)C(C)C)cs1 (centres unmarked) [bis-tosylate of a compound of formula I],< 2,
CC(C)c1nc(CN(C)C(=O)N[C@H](C(=O)N[C@@H](Cc2ccccc2)C[C@H](O)[C@H](Cc2ccccc2)NC(=O)OCc2cncs2)C(C)C)cs1 [compound of formula I],,less than 2%
